Converted amounts (≈) assume the structure as drawn. Read-outs that look alike come from different tables or passages of the source.
Key:
Assay in all cases: Antibacterial activity (MIC), agar dilution
Format in all cases: cell-based
E. coli TK-3* = settings: Escherichia coli, 20 h, E. coli TK-3, penicillinase-producing; 10^6 cells per ml; read-out: MIC
Text: (§1) The amount of bacteria inoculated was 10^4 cells per plate (10^6 cells per ml).
(§2) * Penicillinase-producing bacteria

St. aureus F-137* = settings: Staphylococcus aureus, 20 h, St. aureus F-137, penicillinase-producing; 10^6 cells per ml; read-out: MIC
Text: as §1, §2

Kl. pneumoniae Y-4* = settings: Klebsiella pneumoniae, 20 h, Kl. pneumoniae Y-4, penicillinase-producing, 10^6 cells per ml
Text: as §1, §2

Ps. aeruginosa GN3379* = settings: Pseudomonas aeruginosa, Ps. aeruginosa GN3379, penicillinase-producing, 10^6 cells per ml
Text: as §1, §2

Pro. mirabilis T-111 = settings: Proteus mirabilis, 37° C.
Text: as §1

E. coli TK-111 = settings: Escherichia coli, TK111, 20 h, E. coli TK-111; 10^6 cells per ml; 37° C., 20 hours; read-out: MIC
Text: as §1

St. aureus FDA209P = settings: Staphylococcus aureus, FDA209P, 20 h, St. aureus FDA209P; 10^6 cells per ml; 37° C., 20 hours; read-out: MIC
Text: as §1

E. coli NIHJ JC-2 = settings: Escherichia coli, NIHJJC2, 20 h, E. coli NIHJ JC-2; 10^6 cells per ml; 37° C., 20 hours; read-out: MIC
Text: as §1

Kl. pneumoniae Y-50 = settings: Klebsiella pneumoniae, Y50, 20 h, 10^6 cells per ml, 37° C., read-out: MIC
Text: as §1

Pro. vulgaris GN3027 = settings: Proteus vulgaris, GN3027, 20 h, Pro. vulgaris GN3027; 10^6 cells per ml; 37° C., 20 hours; read-out: MIC
Text: as §1

Aci. antitratus A-6 = settings: 20 h, Aci. antitratus A-6; 10^6 cells per ml; 37° C., 20 hours; read-out: MIC
Text: as §1

Ent. cloacae IID977 = settings: Enterobacter cloacae, IID977, 20 h, Ent. cloacae IID977; 10^6 cells per ml; 37° C., 20 hours; read-out: MIC
Text: as §1

Pro. morganii T-216 = settings: Morganella morganii, 37° C.
Text: as §1

Ps. aeruginosa IFO3445 = settings: Pseudomonas aeruginosa
Text: as §1

Ps. aeruginosa S-68 = settings: Pseudomonas aeruginosa, S68; Ps. aeruginosa S-68; 10^6 cells per ml; 37° C., 20 hours; read-out: MIC
Text: as §1

Kl. pneumoniae Y-41 = settings: Klebsiella pneumoniae, Y41, 10^6 cells per ml, 37° C., 20 hours, read-out: MIC
Text: as §1

E. coli GN5482** = settings: Escherichia coli, 20 h; E. coli GN5482, cephalospolinase-producing; 10^6 cells per ml; read-out: MIC
Text: as §1
(§3) ** Cephalospolinase-producing bacteria

Pro. vulgaris GN76** = settings: Proteus vulgaris, 20 h; Pro. vulgaris GN76, cephalospolinase-producing; 10^6 cells per ml; read-out: MIC
Text: as §1, §3

Ps. aeruginosa GN918** = settings: Pseudomonas aeruginosa, 20 h; Ps. aeruginosa GN918, cephalospolinase-producing; 10^6 cells per ml; read-out: MIC
Text: as §1, §3

[1] = T111, 10^6 cells per ml, 20 hours, read-out: MIC
[2] = T216, 10^6 cells per ml, 20 hours, read-out: MIC
[3] = Ps. aeruginosa IFO3445, 10^6 cells per ml, 37° C., 20 hours, read-out: MIC

Structure (SMILES)	MIC (E. coli TK-3*)	MIC (St. aureus F-137*)	MIC (Ps. aeruginosa GN3379*; 20 h, read-out: MIC)	MIC (Pro. mirabilis T-111; [1])	MIC (E. coli TK-111)	MIC (St. aureus FDA209P)	MIC (E. coli NIHJ JC-2)	MIC (Kl. pneumoniae Y-50)	MIC (Pro. vulgaris GN3027)	MIC (Aci. antitratus A-6)	MIC (Ent. cloacae IID977)	MIC (Pro. morganii T-216; [2])	MIC (Ps. aeruginosa IFO3445; [3])	MIC (Ps. aeruginosa S-68)	MIC (Kl. pneumoniae Y-41)	MIC (E. coli GN5482**)	MIC (Pro. vulgaris GN76**)	MIC (Ps. aeruginosa GN918**)	MIC (Kl. pneumoniae Y-4*; read-out: MIC)	further results
Cc1cc(O)ccc1-n1cc(C(=O)O)c(=O)cc1-c1ccc(N(C)C)cc1	0.2 µg/mL (≈ 0.549 µM)	≤ 0.05 µg/mL	3.13 µg/mL (≈ 8.59 µM)	0.78 µg/mL (≈ 2.14 µM)	≤ 0.05 µg/mL	≤ 0.05 µg/mL	0.1 µg/mL (≈ 0.274 µM)	0.2 µg/mL (≈ 0.549 µM)	0.1 µg/mL (≈ 0.274 µM)	0.1 µg/mL (≈ 0.274 µM)	0.39 µg/mL (≈ 1.07 µM)	0.78 µg/mL (≈ 2.14 µM)	3.13 µg/mL (≈ 8.59 µM)	3.13 µg/mL (≈ 8.59 µM)	0.78 µg/mL (≈ 2.14 µM)	≤ 0.05 µg/mL	0.39 µg/mL (≈ 1.07 µM)	1.56 µg/mL (≈ 4.28 µM)	–	MIC (Kl. pneumoniae Y-4*): 0.78 µg/mL (≈ 2.14 µM)
CNc1ccc(-c2cc(=O)c(C(=O)O)cn2-c2ccc(O)cc2)cc1C	0.39 µg/mL (≈ 1.11 µM)	0.39 µg/mL (≈ 1.11 µM)	6.25 µg/mL (≈ 17.8 µM)	3.13 µg/mL (≈ 8.93 µM)	0.1 µg/mL (≈ 0.285 µM)	0.39 µg/mL (≈ 1.11 µM)	0.39 µg/mL (≈ 1.11 µM)	0.39 µg/mL (≈ 1.11 µM)	0.39 µg/mL (≈ 1.11 µM)	0.78 µg/mL (≈ 2.23 µM)	0.78 µg/mL (≈ 2.23 µM)	–	3.13 µg/mL (≈ 8.93 µM)	3.13 µg/mL (≈ 8.93 µM)	1.56 µg/mL (≈ 4.45 µM)	≤ 0.05 µg/mL	0.78 µg/mL (≈ 2.23 µM)	0.78 µg/mL (≈ 2.23 µM)	1.56 µg/mL (≈ 4.45 µM)	MIC (Pro. morganii T-216; T216, 20 h, 10^6 cells per ml): 1.56 µg/mL (≈ 4.45 µM)
CN(C)c1ccc(-c2cc(=O)c(C(=O)O)cn2-c2ccc(O)c(F)c2)cc1	0.78 µg/mL (≈ 2.12 µM)	0.39 µg/mL (≈ 1.06 µM)	–	–	0.1 µg/mL (≈ 0.271 µM)	0.39 µg/mL (≈ 1.06 µM)	0.39 µg/mL (≈ 1.06 µM)	0.39 µg/mL (≈ 1.06 µM)	0.2 µg/mL (≈ 0.543 µM)	0.39 µg/mL (≈ 1.06 µM)	1.56 µg/mL (≈ 4.23 µM)	1.56 µg/mL (≈ 4.23 µM)	–	1.56 µg/mL (≈ 4.23 µM)	3.13 µg/mL (≈ 8.5 µM)	≤ 0.05 µg/mL	0.78 µg/mL (≈ 2.12 µM)	12.5 µg/mL (≈ 33.9 µM)	3.13 µg/mL (≈ 8.5 µM)	MIC (Ps. aeruginosa GN3379*; GN3379, 20 h): 3.13 µg/mL (≈ 8.5 µM); MIC (Pro. mirabilis T-111; T111, 20 h, 10^6 cells per ml): 3.13 µg/mL (≈ 8.5 µM); MIC (Ps. aeruginosa IFO3445; IFO3445, 20 h): 3.13 µg/mL (≈ 8.5 µM)

From US4698352A, “4-oxo-1,4-dihydronicotinic acid derivatives, salts thereof, and antibacterial agents containing the same” (Toyama Chemical Co., Ltd., priority 1982, dated 1987)
